Source: US20210290742A1, “METHODS OF USING LYSINE DEACETYLASE (KDAC) INHIBITION TO GENERATE ANTIGEN SPECIFIC MEMORY T CELL RESPONSES FOR DURABLE IMMUNOTHERAPY” (ARIZONA BOARD OF REGENTS ON BEHALF OF THE UNIVERSITY OF …, priority 2018, published 2021)

Experiments:
[1] = tested on: antigen stimulated CD8+ T cells; test: Clonal expansion of antigen stimulated CD8+ T cells; type: cell-based, murine; settings: TSA 2.5 ng/ml
[2] = tested on: antigen stimulated CD8 High and CD8 Low T cells; test: mTORC1 activity, cell cycle and proliferation of FACS sorted CD8 High and CD8 Low cells at 48 h; type: cell-based, murine; settings: total 48 hours
Experimental: Gating strategies and growth profiles of antigen alone (Ag) or TSA induced antigen (Ag+TSA) at 48 hours are shown for CD8 High and CD8 Low populations. Ag and Ag+TSA CD8+ T-cell cultures were FACS sorted on the basis of CD8α expression. […] Solid line histograms represent Ag or Ag+TSA CD8 or High cells and shaded histograms are unstimulated naïve CD8+ T cells. […] Solid line histograms represent Ag or Ag+TSA CD8 Low or High cells and shaded histograms are unstimulated naïve CD8+ T cells. […] Error bars are the standard error of mean (SEM) values obtained from three independent experiments. (h: hour; hi: high; lo: low).
(§1) Examples 1-0 were obtained from a murine transgenic model, from which in vitro stimulated naïve cells were isolated from TCR transgenic mice (OT-1/Rag -/-). In brief, the CD8+ T cells obtained from nave TCR transgenic mice (OT-1/Rag -/-) mice were stimulated in vitro with latex microspheres on which major histocompatibility complex (MHC) Class I (H-2Kb) dimers bearing 10 nM of cognate peptide (Ag) were immobilized, along with 1 μg/ml of recombinant murine […] (co-stimulation) and 2 ng/ml of rmIL-12 (cytokine) (FIG. 1).
To determine the implications of the TSA-mediated tuned percentage of CD8 expression on the growth profile, of these cells, the 24 hours Ag and Ag # TSA CD8+ T cells were separated by FACS sorting on the basis of their CD8 expression (FIGS. 5A-5H).

[3] = tested on: mTORC1; test: mTORC1 activity by intracellular flow cytometry of pS6K in antigen stimulated CD8+ T cells; type: cell-based, murine; settings: TSA pretreatment, 4 and 8 hours post-antigen stimulation of naïve OT-1 T cells
Experimental: (§2) Lysates from naïve OT-1 cells served as a control (N). Cell lysates were prepared at 0, 15, 60, or 120 minutes post-stimulation and analyzed for p-LcK^Tyr394, p-Zap70, p-PKCe and β-tubulin levels by Western blot analysis. […] The normalized values at indicated time-points are plotted. […] Naïve (shaded histograms, antigen alone (solid line histogram) and antigen plus TSA (histogram indicated by arrow). Error bars are the standard error of mean (SEM) values obtained from three independent experiments. Naïve OT-1 T cells were pre-treated with TSA for 30 minutes and then stimulated with Ag (microspheres bearing H-2K^b/cognate 8 amino acid peptide/B7-1), (h: hour: N: Naïve; A: Ag; A+T: Ag+TSA).
(§3) Examples 1-0 were obtained from a murine transgenic model, from which in vitro stimulated naïve cells were isolated from TCR transgenic mice (OT-1/Rag -/-). […]
(§4) Western blot analysis was conducted to compare the level of phosphorylation of early TCR signaling proteins, Lck, Zap70, and PKCθ, by TSA pre-treatment of antigen stimulated CD8+ T cells. […] Since, the energy sensitive kinase mTORC1 serves as an integrative node for extracellular signals that initiate naïve CD8+ T cells activation, the mTORC1 activity was assessed by measuring the phosphorylation state of the mTORC1 target ribosomal […] (p-S6) by intracellular flow cytometry (FIG. 3D).

[4] = tested on: Human Jurkat T cells; test: Early CD69 expression on stimulated Jurkat T cells; type: cell-based; settings: TSA 10 ng/ml, anti-CD3/anti-CD28 stimulation, 2 and 4 hours
Experimental: Human Jurkat T Cells were incubated with anti-CD3/anti-0028 (Ag) in the presence or absence of TSA 10 ng/ml) or anti-CD45/CD28 (unstimulated) antibody mated chamber slides for indicated time points. The cells were harvested, counted and stained for CD69. […] FIGS. 10C and 10D show the percentage (% CD69) and their relative Mean Fluorescence intensity (MFI) at 2 and 4 hours, respectively (h: hour).
(§5) Examples 9-10 were obtained from human Jurkat cell line. Jurkat T cells were […]

[5] = tested on: antigen stimulated CD8+ T cells; test: CD8 expression asymmetry in antigen stimulated CD8+ T cells at 24 h; type: cell-based, murine; settings: TSA pre-treated, within 24 h, vs Ag alone
Experimental: Results shown are representative of three independent experiments with identical outcomes. (h: hour; hi high; lo; low).
as §1
Accumulating evidence implicates a deterministic role for cellular asymmetry in antigen induced CD8+ T cells division and functional maturation. The KDACi-mediated reduced TCR signaling and mTOR activity were examined to determine their effect on the induction of inherent asymmetry produced in antigen stimulated CD8+ T cells (FIGS. 4A-4D). […] This could be attributed to the lower threshold of early activation/TCR signaling cues available to the TSA primed CD8+ T cells.

[6] = tested on: TCR proximal signaling (Lck, Zap70, PKCθ phosphorylation); test: Western blot of early TCR signaling proteins (p-Lck, p-Zap70, p-PKCθ) in antigen stimulated CD8+ T cells; type: cell-based, murine; settings: TSA pre-treatment 30 minutes 2.5 ng/ml, vs Ag alone
Experimental: as §2, §1, §4

[7] = tested on: naïve CD8+ (OT-I) T cells; test: Antigen-induced early activation of naïve CD8+ (OT-I) T cells, CD69/CD62L surface staining by flow cytometry; type: cell-based, murine; settings: pre-treatment with TSA 2.5 ng/ml, antigen stimulation 4 hours, vs antigen alone
Experimental: KDAC inhibition with TSA at 2.5 ng/ml differentially regulates early activation phenotype of antigen stimulated CD8+ T cells. […] Naïve cells (control) are presented in shaded histograms, and antigen stimulated cells (Ag) are shown by the solid line histogram. […] The results shown are representative of five independent experiments with identical outcomes. (N: Naîve; A; Ag; A+T: Ag+TSA).
as §3
Cognate antigen presented by MHC Class 1 to irate CD8+ T cells in the context of co-stimulation and cytokine leads to rapid (2-4 hours) increases in CD69 expression and decreases in CD62L, which indicate antigen induced early T cell activation response. To characterize early activation of T cells, naïve CD8+(OT-I) T cells were reacted with antigen (Ag; latex microspheres bearing H-2Kb-Fc+/8 amoni acid cognate peptide/rmB7-1) in vitro for 4 hours, cell surface was stained for […] and CD69 expression and evaluated by flow cytometry. […]

[8] = tested on: IL-2 gene expression in Human Jurkat cells; test: qPCR analysis of antigen-induced IL-2 gene expression in Jurkat T cells; type: cell-based; settings: anti-CD3/anti-CD28 stimulated Jurkat T cells, 30 min to 16 h, presence vs absence of TSA
Experimental: IL-2 gene expression is shown in FIG. 11 in stimulated Jurkat T cells in presence or absence of ISA. Cells were incubated on the anti-CD3/anti-CD28 (stimulatory) or anti-CD45 (non-stimulatory) antibody coated chamber slides for 30 min to 16 h, then the total RNA was extracted and performed qPCR analysis of 1L-2 expression. Data shown are the mean fold change of ±SD of three independent experiments. Error bars represent standard deviations. *, statistically significant (p<0.05) and **, p=0.0071 with respect to the values obtained in the presence of TSA. ns, non-significant. (h: hour).
as §5

## CC(/C=C/C(=O)NO)=C\[C@@H](C)C(=O)c1ccc(N(C)C)cc1 [TSA, Trichostatin A]
[1]
  clonal expansion: reduces clonal expansion
[2]; Ag+TSA CD8 Hi vs Ag alone CD8 Hi
  mTORC1 activity (S6Kp) in CD8 Hi cells: higher
[2]; Ag+TSA CD8 High vs Ag CD8 Hi
  cell cycle phase of CD8 High cells: enter S phase, comparable to the Ag CD8 Hi cells
[2]; Ag+TSA CD8 Low vs Ag CD8 Low
  cell cycle phase of CD8 Low cells: retained in the G0-G1 phase of cell cycle and do not enter the S phase
  mTORC1 activity (S6Kp) in CD8 Low cells: reduced
[3]
  mTORC1 activity (S6Kp): dampened mTORC1 activity
[4]
  early antigen stimulation (CD69 expression): dampens early antigen stimulation of Jurkat T cells
[5]
  proportion of cells with increased expression of CD8: lesser proportion of cells to have increased expression of CD8 as compared to Ag alone
[6]; 60 minutes
  phosphorylation of Zap70: reduction
[6]; 120 minutes
  phosphorylation of PKCθ: reduction
[6]; by 15 minutes
  phosphorylation of Lck: dampened
[7]
  CD62L shedding: increases CD62L shedding
  CD69 expression: reduces antigen dose dependent CD69 expression
[8]
  IL-2 gene expression: reduces IL-2 gene expression
